Laboratory results from PubChem BioAssay (NCI).
Several values for one entry are separate records, joined by “and”; a condition that tells them apart may be missing. Equal entries are not always repeated.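 How tested: cells in 96-well plates exposed to compound for 48 hours at five concentrations. GI50: concentration for 50% inhibition of growth. TGI: total growth inhibition.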

Assays:
Experiment in all cases: NCI-60 cell line screen, 48 h
T-47D breast = system: T-47D breast
SK-MEL-5 melanoma = system: SK-MEL-5 melanoma
OVCAR-3 ovarian = system: OVCAR-3 ovarian
MALME-3M melanoma = system: MALME-3M melanoma
HOP-92 NSCLC = system: HOP-92 NSCLC
HS 578T breast = system: HS 578T breast
HCT-15 colon = system: HCT-15 colon
M14 melanoma = system: M14 melanoma
MCF7 breast = system: MCF7 breast
MDA-MB-231 breast = system: MDA-MB-231 breast
TK-10 renal = system: TK-10 renal
NCI-H522 lung = system: NCI-H522 lung
SN12C renal = system: SN12C renal
A498 renal = system: A498 renal

Structure (SMILES)	TGI (T-47D breast) [µM]	TGI (SK-MEL-5 melanoma) [µM]	TGI (OVCAR-3 ovarian) [µM]	TGI (MALME-3M melanoma) [µM]	TGI (HOP-92 NSCLC)	TGI (HS 578T breast) [µM]	TGI (HCT-15 colon) [µM]	TGI (M14 melanoma) [µM]	TGI (MCF7 breast) [µM]	TGI (MDA-MB-231 breast) [µM]	TGI (TK-10 renal) [µM]	TGI (NCI-H522 lung)	TGI (SN12C renal) [µM]	TGI (A498 renal) [µM]	GI50 (NCI-H522 lung) [µM]	GI50 (SK-MEL-5 melanoma) [µM]	GI50 (HOP-92 NSCLC) [µM]	GI50 (M14 melanoma) [µM]	GI50 (TK-10 renal) [µM]	GI50 (SN12C renal) [µM]
O=[N+]([O-])C(=C/c1cccs1)/C(=C\c1cccs1)[N+](=O)[O-]	7.74	2.94	21.7	4.82	3.28 µM	50.7	0.614	6.88	7.72	0.864	7.76	–	–	–	–	–	–	–	–	–
CC(=O)Nc1ccc(Sc2nnc(NC(C)=O)s2)cc1	> 100	> 100	–	–	–	> 100	> 100	> 100	> 100	> 100	> 100	> 100 µM	> 100	–	–	–	–	–	–	–
C=CCCCCCCCCC(=O)O	–	183	176	302	199 µM	–	192	–	452	–	–	209 µM	339	1.06	–	–	–	–	–	–
CCOC(=O)C(OP(=O)(OCC)OCC)C(F)(F)F (configuration not stated)	> 100	–	> 100	> 100	–	> 100	> 100	> 100	> 100	> 100	> 100	> 100 µM	> 100	> 100	–	–	–	–	–	–
CCN1CCC(O)(c2ccc(O)cc2)C(C(=O)c2ccc(O)cc2)C1 (configuration not stated)	32.9	22.7	32.8	38.8	37.5 µM	> 100	32.1	36.4	10.9	31.1	31.5	–	42	–	–	–	–	–	–	–
COc1cccc2c1C(=O)c1c(O)c3c(c(O)c1C2=O)C[C@@](O)(C(=O)CO)CC3OC1CC(NCCCC(OC(C)=O)OC(C)=O)C(O)C(C)O1 (some centres not stated)	–	0.00028	–	0.00452	0.0065 µM and 0.000862 µM	–	–	–	–	–	> 1	0.00346 µM and 0.000412 µM	> 1	0.00609	< 0.0001	< 0.0001	0.00024	< 0.0001	0.363	< 0.0001
